Reference: PubChem BioAssay AID248 (DTP/NCI, 2004)
Where “and” joins values, the source holds several entries; their conditions need not be identical. Equal values may be shown once. Toxic doses and inconclusive results are not listed. Cut-off read from the data, not from the text of the source: active = T/C of 150% or more; inactive = T/C below 125%.

Test system: L1210 leukemia ip in BDF1 mice, survival T/C
Assay: NCI In Vivo Anticancer Drug Screen. Data for tumor model L1210 Leukemia (intraperitoneal) in B6D2F1 (BDF1) mice
Conditions: endpoint: mean survival time, higher = longer survival
Outline: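 In this screen, tumor-bearing mice given compound are compared to those given vehicle, and their survival values are reported as a treated-to-control quotient.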

[1] = dose: 100.0 mg/kg/injection, schedule: Q01DX009 (ip), vehicle: Klucel (hydroxypropylcellulose) (HPC)
[2] = dose: 200.0 mg/kg/injection, schedule: Q01DX009 (ip), vehicle: Klucel (hydroxypropylcellulose) (HPC)
[3] = dose: 400.0 mg/kg/injection, schedule: Q01DX009 (ip), vehicle: Klucel (hydroxypropylcellulose) (HPC)
[4] = dose: 25.0 mg/kg/injection, schedule: Q04DX003 (ip), vehicle: Klucel (hydroxypropylcellulose) (HPC)
[5] = dose: 50.0 mg/kg/injection, schedule: Q04DX003 (ip), vehicle: Klucel (hydroxypropylcellulose) (HPC)
[6] = dose: 100.0 mg/kg/injection, schedule: Q01DX009 (ip), vehicle: saline
[7] = dose: 200.0 mg/kg/injection, schedule: Q01DX009 (ip), vehicle: saline
[8] = dose: 400.0 mg/kg/injection, schedule: Q01DX009 (ip), vehicle: saline
[9] = dose: 400.0 mg/kg/injection, schedule: Q04DX003 (ip), vehicle: saline
[10] = dose: 50.0 mg/kg/injection, schedule: Q04DX002 (ip), vehicle: Klucel (hydroxypropylcellulose) (HPC)
[11] = dose: 100.0 mg/kg/injection, schedule: Q04DX002 (ip), vehicle: Klucel (hydroxypropylcellulose) (HPC)
[12] = dose: 100.0 mg/kg/injection, schedule: Q04DX003 (ip), vehicle: Klucel (hydroxypropylcellulose) (HPC)
[13] = dose: 100.0 mg/kg/injection, schedule: Q01DX001 (ip), vehicle: saline
[14] = dose: 200.0 mg/kg/injection, schedule: Q01DX001 (ip), vehicle: saline
[15] = dose: 400.0 mg/kg/injection, schedule: Q01DX001 (ip), vehicle: saline

Measured: T/C

C=C1CC2(CCC23COC(=O)C3=C)OC1=O (centres undefined)
inactive: dose: 1.56 mg/kg/injection, schedule: Q01DX001 (ip), vehicle: other 98 % of control | dose: 3.12 mg/kg/injection, schedule: Q01DX001 (ip), vehicle: other 102 % of control and 109 % of control | dose: 6.25 mg/kg/injection, schedule: Q01DX001 (ip), vehicle: other 105 % of control and 121 % of control | dose: 12.5 mg/kg/injection, schedule: Q01DX001 (ip), vehicle: other 102 % of control

COc1ccc(/C=C2\NC(=O)NC2=O)cc1Br
inactive: [1] 93 % of control | [2] 96 % of control | [3] 91 % of control

CCOC(=O)c1cnc(SC)nc1Nc1c(Br)cc(Br)cc1Br
inactive: dose: 12.5 mg/kg/injection, schedule: Q01DX009 (ip), vehicle: Klucel (hydroxypropylcellulose) (HPC) 102 % of control | dose: 12.5 mg/kg/injection, schedule: Q04DX003 (ip), vehicle: Klucel (hydroxypropylcellulose) (HPC) 97 % of control | dose: 25.0 mg/kg/injection, schedule: Q01DX009 (ip), vehicle: Klucel (hydroxypropylcellulose) (HPC) 102 % of control | [4] 94 % of control | dose: 50.0 mg/kg/injection, schedule: Q01DX009 (ip), vehicle: Klucel (hydroxypropylcellulose) (HPC) 105 % of control | [5] 103 % of control

COc1ccc(CNCCO)cc1
inactive: [6] 96 % of control | dose: 100.0 mg/kg/injection, schedule: Q04DX003 (ip), vehicle: saline 96 % of control | [7] 91 % of control | dose: 200.0 mg/kg/injection, schedule: Q04DX003 (ip), vehicle: saline 98 % of control | [8] 97 % of control | [9] 93 % of control

CS(=O)(=O)N(c1ccccc1)c1ccccc1N
inactive: dose: 100.0 mg/kg/injection, schedule: Q01DX001 (ip), vehicle: other 94 % of control | dose: 200.0 mg/kg/injection, schedule: Q01DX001 (ip), vehicle: other 107 % of control | dose: 400.0 mg/kg/injection, schedule: Q01DX001 (ip), vehicle: other 88 % of control

Cc1nc(C)c(C(=O)O)cc1C(=O)O
inactive: [6] 104 % of control | [7] 101 % of control | [8] 100 % of control

O=C1C(c2ccccc2)CS(=O)(=O)CC1c1ccccc1 (centres undefined)
inactive: [10] 101 % of control | [11] 99 % of control | dose: 200.0 mg/kg/injection, schedule: Q04DX002 (ip), vehicle: Klucel (hydroxypropylcellulose) (HPC) 96 % of control

C=CCc1cc(CNC(C)C)c(O)c(OC)c1
inactive: [4] 96 % of control | [5] 88 % of control | [12] 101 % of control and 92 % of control

CCCC(C(O)c1ccc(OC)cc1)C(O)(C(F)(F)F)C(F)(F)F (centres undefined)
inactive: dose: 100.0 mg/kg/injection, schedule: Q04DX003 (ip), vehicle: other 97 % of control | dose: 200.0 mg/kg/injection, schedule: Q04DX003 (ip), vehicle: other 92 % of control | dose: 400.0 mg/kg/injection, schedule: Q04DX003 (ip), vehicle: other 92 % of control

COc1ccc(N2CSC(=S)N(c3ccc(OC)cc3)C2)cc1
inactive: dose: 25.0 mg/kg/injection, schedule: Q01DX009 (ip), vehicle: saline 96 % of control | dose: 50.0 mg/kg/injection, schedule: Q01DX009 (ip), vehicle: saline 93 % of control | [6] 95 % of control | [9] 91 % of control

Cc1ncc(Br)c(C(=O)O)n1
inactive: dose: 50.0 mg/kg/injection, schedule: Q01DX001 (ip), vehicle: saline 101 % of control | [13] 98 % of control | [1] 106 % of control | [14] 95 % of control | [2] 113 % of control | [15] 90 % of control | [3] 110 % of control

COc1cc2cc3c4cc(OC)c(OC)cc4cc[n+]3c(/C=C\c3ccccc3O)c2cc1OC
inactive: dose: 50.0 mg/kg/injection, schedule: Q01DX001 (ip), vehicle: carboxymethylcellulose (CMC) 106 % of control | dose: 100.0 mg/kg/injection, schedule: Q01DX001 (ip), vehicle: carboxymethylcellulose (CMC) 114 % of control | dose: 100.0 mg/kg/injection, schedule: Q04DX002 (ip), vehicle: carboxymethylcellulose (CMC) 100 % of control and 104 % of control | dose: 100.0 mg/kg/injection, schedule: Q04DX003 (ip), vehicle: carboxymethylcellulose (CMC) 109 % of control and 118 % of control | dose: 200.0 mg/kg/injection, schedule: Q01DX001 (ip), vehicle: carboxymethylcellulose (CMC) 119 % of control | dose: 200.0 mg/kg/injection, schedule: Q04DX002 (ip), vehicle: carboxymethylcellulose (CMC) 100 % of control and 103 % of control | dose: 200.0 mg/kg/injection, schedule: Q04DX003 (ip), vehicle: carboxymethylcellulose (CMC) 110 % of control and 123 % of control | dose: 400.0 mg/kg/injection, schedule: Q01DX001 (ip), vehicle: carboxymethylcellulose (CMC) 116 % of control | dose: 400.0 mg/kg/injection, schedule: Q04DX002 (ip), vehicle: carboxymethylcellulose (CMC) 97 % of control and 104 % of control | dose: 400.0 mg/kg/injection, schedule: Q04DX003 (ip), vehicle: carboxymethylcellulose (CMC) 110 % of control and 115 % of control

ClB(Cl)c1ccccc1
inactive: [13] 92 % of control | [14] 92 % of control | [15] 101 % of control

CC(C)=CCc1ccc(O)cc1
inactive: dose: 100.0 mg/kg/injection, schedule: Q01DX009 (ip), vehicle: saline + alcohol 95 % of control | [12] 96 % of control | dose: 200.0 mg/kg/injection, schedule: Q04DX003 (ip), vehicle: Klucel (hydroxypropylcellulose) (HPC) 100 % of control | dose: 400.0 mg/kg/injection, schedule: Q04DX003 (ip), vehicle: Klucel (hydroxypropylcellulose) (HPC) 95 % of control

C[N+](C)(C)CCS(=O)(=O)Cc1ccccc1
inactive: dose: 75.0 mg/kg/injection, schedule: Q01DX001 (ip), vehicle: carboxymethylcellulose (CMC) 110 % of control | dose: 150.0 mg/kg/injection, schedule: Q01DX001 (ip), vehicle: carboxymethylcellulose (CMC) 108 % of control | dose: 300.0 mg/kg/injection, schedule: Q01DX001 (ip), vehicle: carboxymethylcellulose (CMC) 96 % of control

Clc1ccc([S][Pb]([c]2ccccc2)([c]2ccccc2)[c]2ccccc2)cc1
inactive: dose: 100.0 mg/kg/injection, schedule: Q04DX002 (ip), vehicle: gum acacia 88 % of control | dose: 200.0 mg/kg/injection, schedule: Q04DX002 (ip), vehicle: gum acacia 91 % of control

C=CCc1c(O)c(OC)cc2c1C(=O)CCCC2
inactive: dose: 50.0 mg/kg/injection, schedule: Q01DX009 (ip), vehicle: saline with Tween-80 93 % of control | dose: 100.0 mg/kg/injection, schedule: Q01DX009 (ip), vehicle: saline with Tween-80 93 % of control | dose: 200.0 mg/kg/injection, schedule: Q01DX009 (ip), vehicle: saline with Tween-80 93 % of control

OCC1OC(n2cnc3ccccc32)C(O)C1O (centres undefined)
inactive: [13] 100 % of control | [14] 100 % of control | [15] 95 % of control

c1ccc2c(c1)ccc1cc3ccncc3cc12
inactive: [13] 95 % of control and 98 % of control | [14] 100 % of control and 106 % of control | [15] 96 % of control

CC(=O)N1Cc2ccc(/C=C(/C#N)C(N)=O)n2Cc2cc3c(cc21)OCO3
inactive: dose: 25.0 mg/kg/injection, schedule: Q04DX002 (ip), vehicle: Klucel (hydroxypropylcellulose) (HPC) 91 % of control | [10] 98 % of control | [11] 91 % of control
